Earlier results on one molecule are cited in patent publication US10557153B2, “Degradation of lignocellulosic material” (DSM IP ASSETS B.V., priority 2008, dated 2020).

Holding throughout (conditions): S (Cellobiose) 2.5 g/L
Data set [1] has as its system Talaromyces beta-glucosidase.
In data set [2] the test system is Trichoderma beta-glucosidase.
Data set [3] deals with A. niger beta-glucosidase.
In data set [4] the test system is A. oryzae beta-glucosidase.

On to `OC[C@H]1O[C@@H](O[C@H]2[C@H](O)[C@@H](O)C(O)O[C@@H]2CO)[C@H](O)[C@@H](O)[C@@H]1O` (stereo partly shown) [cellobiose], for which the “Vmax (cellobiose)” value was 1080 gr/gr protein/hr in data set [1], 470 gr/gr protein/hr in data set [2], 400 gr/gr protein/hr in data set [3] and 10131 gr/gr protein/hr in data set [4].
